# In patent US6762193B1, “Method of treating hair loss” (priority 2000, dated 2004):
# Key:
# Format in all cases: in vivo, human
# androgenetic alopecia = test: Investigative study of zafirlukast in androgenetic alopecia / hereditary balding (hair loss and regrowth)
# Experimental: (§1) During the summer of 2000 an investigative study was initiated to determine the efficacy of zafirlukast in the treatment of androgenetic alopecia A middle aged blond haired person whom was actively undergoing genetically influenced alopecia was recruited and voluntarily enlisted into the study under informed consent. […] Just two months earlier serum luteinizing hormone, total testosterone, androstenedione and dehydroepiandrosterone sulfate levels were determined to be normal. Having considered that dihydrotestosterone levels may have been suppressed to a low normal range, as pre treatment dihydrotestosterone serum determination had not been performed, the dose of zafirlukast was increased to 40 mg taken by mouth twice daily. Continuing this dose for a one month period of time, serum dihydrotestosterone levels were reanalized and determined to be 21 NG/DL (normal 25 to 75 NG/DL). […] The patient was then withdrawn, from zafirlukast therapy and there were no specific complications or side effects during a one month abstinence from zafirlukast and serum dihydrotestosterone levels were redetermined and found to be 15 NG/DL (normal 25 to 75 NG/DL). This patient was then given the option to continue treatment with zafirlukast at a dose of 40 mg taken by mouth twice daily for the treatment of androgenic alopecia and decided to do so as they had witnessed the continued regrowth of hair and remission of hair loss while taking zafirlukast. […] The results are as follows:
# (§2) In person two undergoing treatment with zafirlukast at 40 mg po bid for hereditary balding, their pretreatment dihydrotestosterone level was 5 NG/DL (normal 5 to 30 NG/DL); after 4 weeks of continuous treatment their dihydrotestosterone serum concentration was 4 NG/DL (normal 5 to 30 NG/DL) and at 6 weeks of continued treatment their serum dihydrotestosterone level was determined to be less than 3 NG/DL.
# [1] = system: Grade IV cystic acne vulgaris; test: Zafirlukast treatment of a patient with Grade IV cystic acne vulgaris; settings: person one, 40 mg po bid
# [2] = system: acne vulgaris/acne rosacea; test: Inception cohort investigational study of zafirlukast in acne vulgaris/acne rosacea patients
# Description: This study was designed to evaluate the effectiveness in treating acne vulgaris with the drug zafirlukast After having established a mechanism by which zafirlukast would be effective in the treatment of acne vulgaris, and subsequently treating a single case of acne conglobata successfully during the summer and fall of 1999, this study was purposely designed to evaluate the treatment of acne vulgaris with the drug zafirlukast
# Objective: To determine if the anti-leukotriene zafirlukast is effective in the treatment of acne vulgaris/acne rosacea.
# Design: Inception cohort investigational study conducted from October 1999 to January 2000.
# Setting: Rural Family Practice clinic in Waldheim, La.
# Participants: A total of 7 male and 8 female patients aged 12-45 years diagnosed with mild, moderate, or severe acne vulgaris including one case of acne conglobata and 2 cases of acne rosacea were given 20 mg. of zafirlukast (ACCOLATE® brand from AstraZeneca) twice daily from week 1 through week 4. The dose was increased to 30 mg. twice daily at week 4 and continued through week 8. At week 8 the dose of zafirlukast was decreased to 20 mg twice daily and continued until the termination of the study at 10 weeks.
# Between the months of October and November 1999 both adolescent and adult patients were recruited consecutively at a family practice clinic in rural Louisiana to participate in an investigational study to determine the effectiveness of zafirlukast in the treatment of acne vulgarism Those patients who provided informed consent and who have reported a prior medical diagnosis of acne vulgaris were enlisted into the study. This cohort was composed of a total of seven male and eight female Caucasian patients, age twelve to forty five years, diagnosed with mild, moderate or severe acne vulgaris.
# Pre-study recruitment assessment data was consistent with the following: one of fifteen patients was diagnosed with acne conglobata; two of fifteen patients were […] with acne rosacea, one of which had acne scars who had previously been treated with oral isotretinoin for nodular-cystic acne; eleven of fifteen patients with moderate to severe inflammatory/nodular-cystic acne; all patients had self medicated with topical comedolytic over-the-counter agents; three of fifteen patients had never been treated with prescription (topical or systemic) medications; twelve of fifteen patients were prescribed a range of three to five medical prescriptions (both topical and systemic) with varying degrees of success and failure; three of fifteen patients had previously taken oral isotretinoin; two of fifteen patients had been offered oral isotretinoin but refused that treatment.
# Inclusion criteria for study enlistment encompassed any patient who was requesting medical treatment of a chief complaint of acne dermatitis, coincident with a clinical diagnosis of acne vulgaris confirmed by physical examination. These patients voluntarily agreed to be treated with zafirlukast knowing that alternative treatment (both topical and systemic) were available. At the initial visit all patients were instructed on the use of zafirlukast This was to be administered by mouth twice daily. The potential side effects, potential adverse reactions, and other risks were all explained. Patients all agreed to avoid any over-the-counter acne preparations and were to use any household soft-soap product to wash the facial skin twice daily. Zafirlukast was to be administered at the dose of 20 mg. twice daily from week one through week four and then to be increased to 30 mg. twice daily at week four and continued through week eight. At week eight the dose of zafirlukast was to be decreased to 20 mg. taken twice daily and continued until the completion of the study at ten weeks.
# Main Outcome Measures: Subjective and objective medical examination and qualitative photographic analysis were employed at each patients initial visit to establish baseline. […]
# [3] = Serum ancillary hormone and liver function studies during zafirlukast treatment
# Experimental: During the summer of 2000 an investigative study was initiated to determine the efficacy of zafirlukast in the treatment of androgenetic alopecia A middle aged blond haired person whom was actively undergoing genetically influenced alopecia was recruited and voluntarily enlisted into the study under informed consent. […] Just two months earlier serum luteinizing hormone, total testosterone, androstenedione and dehydroepiandrosterone sulfate levels were determined to be normal. Having considered that dihydrotestosterone levels may have been suppressed to a low normal range, as pre treatment dihydrotestosterone serum determination had not been performed, the dose of zafirlukast was increased to 40 mg taken by mouth twice daily. Continuing this dose for a one month period of time, serum dihydrotestosterone levels were reanalized and determined to be 21 NG/DL (normal 25 to 75 NG/DL). […] The patient was then withdrawn, from zafirlukast therapy and there were no specific complications or side effects during a one month abstinence from zafirlukast and serum dihydrotestosterone levels were redetermined and found to be 15 NG/DL (normal 25 to 75 NG/DL). This patient was then given the option to continue treatment with zafirlukast at a dose of 40 mg taken by mouth twice daily for the treatment of androgenic alopecia and decided to do so as they had witnessed the continued regrowth of hair and remission of hair loss while taking zafirlukast. […]
# In this study a dose and time dependent effect has been identified with the treatment of both acne vulgaris and common baldness in genetically susceptible men and women without physical or psychological compromise, or forfeit of quality of life. […] Serum liver function studies monitored during this study remained in the normal range of value except in one patient with known Hepatitis C and abnormal pretreatment liver function studies; however, in all patients including the one patient with Hepatitis C, serum liver function studies improved with zafirlukast treatment possibly indicating a role in treating liver diseases in the future.
# dihydrotestosterone = test: Serum dihydrotestosterone level in patients treated with zafirlukast
# Experimental: as §1
# In person one undergoing treatment for Grade IV cystic acne vulgaris with zafirlukast at 40 mg po bid (by mouth twice a day) for 4 weeks, preceded by 2 weeks of zafirlukast treatment at 30 mg bid, their serum dihydrotestosterone level was determined to be 16 NG/DL (normal was 25 to 75 NG/DL).
# as §2
compound,measurement,setting,value
COc1cc(C(=O)NS(=O)(=O)c2ccccc2C)ccc1Cc1cn(C)c2ccc(NC(=O)OC3CCCC3)cc12 [zafirlukast],side effects or adversities,"androgenetic alopecia; person one (acne) and person two (balding), 40 mg po bid",never witnessing any side effects or adversities
same,regrowth of frontal hair,"androgenetic alopecia; person two, 40 mg po bid",regrowth of frontal hair
same,regrowth of hair,"androgenetic alopecia; person, 20 mg twice daily, by the fourth month",regrowth of hair in the area of temporat and vertex balding was observed
same,occurrence of hair loss,"androgenetic alopecia; person, 20 mg twice daily, within the first 6 weeks",less occurrence of hair loss
same,side effects,"androgenetic alopecia; person, 20-40 mg twice daily",never any side effects observed
same,acne lesion remission and clearing,[1],significant improvement
same,added benefit of higher dose,[2]; 30 mg twice daily from week 4 thru week 8 versus 20 mg twice daily,no added benefit
same,acne remission during the study,"[2]; 15 patients, 20-30 mg twice daily oral, 10 weeks",all participants attained periods of acne remission
same,time to subjective and objective clinical improvement,"[2]; after initiating zafirlukast therapy, routinely, observed as early as two weeks",3-4 weeks
same,time to acne reoccurrence in consistently non-compliant patients,[2]; after more than 2-3 doses missed,2 to 3 days
same,reduction of perilesional erythema,[2]; by week eight,80-90%
same,reduction of perilesional erythema,[2]; by week four,40-50%
same,resolution of perilesional erythema,[2]; by week two,10-15%
same,reoccurrence of acne form lesions after discontinuation,[2]; discontinuation of therapy over a 5-7 day period,equal to baseline levels
same,remission in the one patient compliant throughout the entire study,[2]; fully compliant patient,complete remission
same,side effects,"[2]; one participant with acne rosacea, taken on an empty stomach, only participant with side effects, none at 10 mg twice daily",asthenia
same,serum liver function studies,[3]; all patients including one with Hepatitis C,improved
same,"serum luteinizing hormone, total testosterone, androstenedione and dehydroepiandrosterone sulfate levels","[3]; person, 20 mg twice daily, about second month",normal
same,"serum 3-alpha androstanediol glucuronide, estrone, androstenedione, total testosterone, prostate specific antigen, and progesterone levels","[3]; person, 40 mg twice daily for one month",within normal limits
same,serum dihydrotestosterone level,"dihydrotestosterone; person one, 40 mg po bid for 4 weeks preceded by 2 weeks at 30 mg bid, normal 25 to 75",16 ng/dL
same,dihydrotestosterone serum concentration,"dihydrotestosterone; person two, 40 mg po bid, after 4 weeks, pretreatment 5, normal 5 to 30",4 ng/dL
same,serum dihydrotestosterone level,"dihydrotestosterone; person two, 40 mg po bid, at 6 weeks",less than 3 NG/DL
same,serum dihydrotestosterone level,"dihydrotestosterone; person, 20 mg twice daily, completion of fourth month, normal 25 to 75",32 ng/dL
same,serum dihydrotestosterone level,"dihydrotestosterone; person, 40 mg twice daily for one month, normal 25 to 75",21 ng/dL
same,serum dihydrotestosterone level,"dihydrotestosterone; person, after one month abstinence from zafirlukast, normal 25 to 75",15 ng/dL
